Reference: patent publication US7915270B2, “Oxazole ketones as modulators of fatty acid amide hydrolase” (The Scripps Research Institute, priority 2006, dated 2011)

How the values were obtained:
[1] = Solubility determination in water; type: physicochemical; details: thermodynamic from solid; in water at 5, 1 and 0.1 mg/mL; pH of resulting solutions 7-8.5
Procedure: Physical Chemical Properties
Solubility determinations were made by mixing the test compound in water at 5 mg/mL, 1 mg/mL, and 0.1 mg/mL concentrations. The pH of the resulting solutions was 7-8.5.

FAAH = biological target: T1, FAAH (Homo sapiens, UniProt O00519); experiment: Assay Method 1B: FAAH assay, 3H-anandamide hydrolysis in cell homogenate (T84 or SK-N-MC cells transfected with human FAAH); type: biochemical; design: expressed in transfected cells; details: 3H-AEA 80 nM, rt 1 h, pH 9
T1 sequence (O00519 1-579): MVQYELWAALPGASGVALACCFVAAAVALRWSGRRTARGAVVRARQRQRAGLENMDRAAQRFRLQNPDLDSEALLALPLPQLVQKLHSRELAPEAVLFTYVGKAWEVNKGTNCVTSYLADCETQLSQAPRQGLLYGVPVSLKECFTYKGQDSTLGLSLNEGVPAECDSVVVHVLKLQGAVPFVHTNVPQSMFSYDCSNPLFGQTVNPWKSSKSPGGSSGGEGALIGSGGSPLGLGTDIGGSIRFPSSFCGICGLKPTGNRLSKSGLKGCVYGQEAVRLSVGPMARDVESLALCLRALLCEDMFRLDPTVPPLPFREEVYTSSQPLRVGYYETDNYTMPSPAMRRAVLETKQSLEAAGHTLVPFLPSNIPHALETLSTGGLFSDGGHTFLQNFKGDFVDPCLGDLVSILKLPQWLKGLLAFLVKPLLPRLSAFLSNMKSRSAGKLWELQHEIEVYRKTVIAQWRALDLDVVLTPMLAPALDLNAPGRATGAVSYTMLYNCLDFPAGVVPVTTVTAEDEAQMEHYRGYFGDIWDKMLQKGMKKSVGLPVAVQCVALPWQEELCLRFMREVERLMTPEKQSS

solubility [1] [µg/mL]	IC50 (FAAH) [nM]	Compound
> 5000	0.2	O=C(O)c1ccc(-c2cnc(C(=O)CCCCCCc3ccccc3)o2)nc1 [Example 38, 6-(2-(7-Phenylheptanoyl)oxazol-5-yl)nicotinic acid]
> 5000	0.4	O=C(O)c1cccc(-c2cnc(C(=O)CCCCCCc3ccccc3)o2)n1 [Example 37, 6-(2-(7-Phenylheptanoyl)oxazol-5-yl)picolinic acid]
